Measured values taken from patent US8202893B2, “Cannabinergic lipid ligands” (University of Connecticut, priority 2004, dated 2012).
Like-named read-outs stand apart in the source and are kept apart here.

Experiments:
anandamide transporter = test: [3H]Anandamide transporter competition assay; type: cell-based; details: human CCF-STG1 astrocytoma cells, 10 nM [3H]anandamide
Procedure: Human CCF-STG1 astrocytoma cells (American Type Culture collection) were grown in RPMI1640 culture medium containing 2 mM L-glutamine, 4.5 g/L glucose, 10 mM HEPES, and 1.0 mM sodium pyruvate, 10% FBS, cultures at 37° C. with 5% CO2. For standard competition assays, confluent cells grown in 24-well plates were rinsed and preincubated for 10 min at 37° C. in assay buffer (Hank's Balanced Salt Solution containing 0.1% DMSO, 10 mM HEPES) plus test compounds (at their final concentrations of 0.01-100 μM). After having discarded the preincubation media, the cells were incubated for 4 min in 0.2 ml assay buffer containing 10 nM [^3H] anandamide (137.6 Ci/mmol, New England Nuclear) plus test compounds. Reactions were stopped by removing the incubation media and rinsing the cells three times with 0.5 ml of ice-cold HBSS buffer containing 0.1% fatty acid-free Bovine Serum Albumin (sigma). Radioactive material in Triton X-100 cell extracts was measured by liquid scintillation counting. A minimum of three independent experiments conducted in six replicates was used to define the concentration needed to produce half-maximal inhibition (IC50) for each compound. IC50 values were obtained by nonlinear regression fitting of the data, using the PRIZM software package. Data are expressed as mean±SEM.

CB1 cannabinoid receptor = target: T1, CB1 cannabinoid receptor (Rattus norvegicus, UniProt P20272); test: CB1 receptor binding, [3H]CP-55,940 displacement; details: rat forebrain membranes
T1 construct: membranes were prepared from rat forebrain membranes; from tissue; host or cells: rat forebrain
Procedure: Some inventive analogs were tested for CB2 receptor binding affinity and for CB1 receptor affinity (to determine selectivity). […] The lower the Ki value, the higher the binding affinity. […] For the CB1 receptor binding studies, membranes were prepared from rat forebrain membranes according to the procedure of P. R. Dodd et al, A Rapid Method for Preparing Synaptosomes: Comparison with Alternative Procedures, Brain Res., 107-118 (1981). The binding of the novel analogues to the CB1 cannabinoid receptor was assessed as described in W. A. Devane et al, Determination and Characterization of a Cannabinoid Receptor in a Rat Brain, Mol. Pharmacol., 34, 605-613 (1988) and A. Charalambous et al, 5′-azido Δ^8-THC: A Novel Photoaffinity Label for the Cannabinoid Receptor, J. Med. Chem., 35, 3076-3079 (1992) with the following changes. The above articles are incorporated by reference herein.
Membranes, previously frozen at −80° C., were thawed on ice. To the stirred suspension was added three volumes of TME (25 mM Tris-HCl buffer, 5 mM MgCl2 and 1 mM EDTA) at a pH 7.4. The suspension was incubated at 4° C. for 30 min. At the end of the incubation, the membranes were pelleted and washed three times with TME.
(§1) The treated membranes were subsequently used in the binding assay described below. Approximately 30 μg of membranes were incubated in silanized 96-well microtiter plate with TME containing 0.1% essentially fatty acid-free bovine serum albumin (BSA), 0.8 nM [^3H] CP-55,940, and various concentrations of test materials in a final volume of 200 μL. The assays were incubated for 1 hour at 30° C. and then immediately filtered using Packard Filtermate 196 harvester and Whatman GF/C filterplates and washed with wash buffer (TME) containing 0.5% BSA. Radioactivity was detected using MicroScint 20 scintillation cocktail added directly to the dried filterplates, and the filterplates were counted using a Packard Instruments Top-Count. Nonspecific binding was assessed using 100 nM CP-55,940. Data collected from three independent experiments performed with duplicate determinations was normalized between 100% and 0% specific binding for [^3H] CP-55,940, determined using buffer and 100 nM CP-55,940. The normalized data was analyzed using a 4-parameter nonlinear logistic equation to yield IC50 values.

[1] = target: T2, FAAH (fatty acid amide hydrolase) (Rattus norvegicus, UniProt P97612); test: FAAH screening: inhibition of anandamide metabolism to arachidonic acid; type: biochemical; details: 25 nmoles compound with 25 nmoles AEA, 75 μg enzyme, 250 μL, 15 min
T2 construct: Anandamide Amidase Activity in Rat Brain Microsomes; from tissue; host or cells: rat brain microsomes (by the cited procedure)
T2 sequence (P97612 1-579): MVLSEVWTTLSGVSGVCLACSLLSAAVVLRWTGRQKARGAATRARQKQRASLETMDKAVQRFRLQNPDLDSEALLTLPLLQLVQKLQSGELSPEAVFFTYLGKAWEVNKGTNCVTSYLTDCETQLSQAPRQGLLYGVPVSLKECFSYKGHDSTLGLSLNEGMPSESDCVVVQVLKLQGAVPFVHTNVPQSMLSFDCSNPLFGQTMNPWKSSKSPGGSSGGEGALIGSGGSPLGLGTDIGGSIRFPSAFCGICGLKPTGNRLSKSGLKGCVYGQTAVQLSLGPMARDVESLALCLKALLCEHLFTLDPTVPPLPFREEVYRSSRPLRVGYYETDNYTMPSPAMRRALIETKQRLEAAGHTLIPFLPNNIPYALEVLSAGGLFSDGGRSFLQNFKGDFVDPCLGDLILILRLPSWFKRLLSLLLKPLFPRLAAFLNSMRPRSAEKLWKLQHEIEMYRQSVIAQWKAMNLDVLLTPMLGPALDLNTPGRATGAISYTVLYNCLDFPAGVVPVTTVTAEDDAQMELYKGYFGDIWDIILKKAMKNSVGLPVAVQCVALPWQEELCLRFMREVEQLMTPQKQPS
Procedure: The FAAH (fatty acid amide hydrolase) enzyme preparation was obtained according to the procedure of Lang and Makriyannis et al High Performance Liquid Chromatographic Determination of Anandamide Amidase Activity in Rat Brain Microsomes, Analytical Biochemistry (238): 40-45, 1996.
All compound solutions were made to a concentration of 10 mM in DMSO. Three tests were performed on each compound: hydrolysis, to determine the stability of the compound in assay conditions without the enzyme present; metabolism, to determine the stability of the compound with the enzyme present; and inhibition of anandamide (native substrate) metabolism to arachidonic acid.
Again the reaction mixture was treated in the same manner as described above and the concentrations of AEA and AA were calculated using external standards. Percent inhibition was calculated using the following equation: % Inhib.=(AA15-AA0)i/(AA15-AA0)s where (AA15-AA0)c is the amount of arachidonic acid formed over 15 minutes from AEA with the inhibitor present and (AA15-AA0)s is the amount of arachidonic acid formed over 15 minutes from AEA when the inhibitor is not present. […] The reaction mixtures were treated as described above and the amount of AA formed was calculated. The software package GraphPad Prism was utilized to calculate IC50 and Ki. HPLC Conditions:
Chromatographic separation was achieved using an Ultrasphere ODS Pre-column (4.6×45 mm) from Beckman. Hardware consisted of a Waters Millennium HPLC system with a 20 μL injection loop. The mobile phase consisted of 8.5% o-phosphoric acid:acetonitrile (3:7), run isocratically at a rate of 1 mL/min and detection at 204 nm. The total run time was 8 minutes with AEA eluting at 2.2 minutes and AA at 6.0 minutes.

CB2 receptor = target: T3, CB2 receptor (Mus musculus, UniProt P47936); test: CB2 receptor binding, [3H]CP-55,940 displacement; details: mouse spleen membranes
T3 construct: membranes were prepared from frozen mouse spleen; from tissue; host or cells: mouse spleen
Procedure: as §1
For the CB2 receptor binding studies, membranes were prepared from frozen mouse spleen essentially according to the procedure of P. R. Dodd et al, A Rapid Method for Preparing Synaptosomes: Comparison with Alternative Procedures, Brain Res., 226, 107-118 (1981) which is incorporated by reference herein. Silanized centrifuge tubes were used throughout to minimize receptor loss due to adsorption. The CB2 binding assay was conducted in the same manner as for the CB1 binding assay. The binding affinities (Ki) were also expressed in nanomoles (nM).

[2] = with PMSF (second value of cell), read-out: Ki CB1 (nM) (o/w PMSF)
[3] = without PMSF (first value of cell), read-out: Ki CB1 (nM) (o/w PMSF)
[4] = with PMSF (second value of cell), read-out: Ki CB1 (nM) (o/w PMSFQ)
[5] = without PMSF (first value of cell), read-out: Ki CB1 (nM) (o/w PMSFQ)

T1 sequence (P20272 whole entry): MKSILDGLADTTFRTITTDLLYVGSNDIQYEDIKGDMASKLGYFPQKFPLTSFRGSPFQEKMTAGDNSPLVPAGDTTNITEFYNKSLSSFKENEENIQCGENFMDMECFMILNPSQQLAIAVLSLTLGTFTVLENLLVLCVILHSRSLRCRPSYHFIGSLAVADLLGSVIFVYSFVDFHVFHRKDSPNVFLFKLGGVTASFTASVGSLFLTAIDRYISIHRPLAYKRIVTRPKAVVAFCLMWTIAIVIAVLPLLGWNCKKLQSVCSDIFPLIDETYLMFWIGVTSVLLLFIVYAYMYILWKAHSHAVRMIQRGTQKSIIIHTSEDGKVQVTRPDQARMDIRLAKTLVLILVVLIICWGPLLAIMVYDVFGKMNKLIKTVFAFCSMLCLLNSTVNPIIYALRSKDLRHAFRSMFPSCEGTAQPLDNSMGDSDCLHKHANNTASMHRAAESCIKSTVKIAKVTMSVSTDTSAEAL
T3 sequence (P47936 whole entry): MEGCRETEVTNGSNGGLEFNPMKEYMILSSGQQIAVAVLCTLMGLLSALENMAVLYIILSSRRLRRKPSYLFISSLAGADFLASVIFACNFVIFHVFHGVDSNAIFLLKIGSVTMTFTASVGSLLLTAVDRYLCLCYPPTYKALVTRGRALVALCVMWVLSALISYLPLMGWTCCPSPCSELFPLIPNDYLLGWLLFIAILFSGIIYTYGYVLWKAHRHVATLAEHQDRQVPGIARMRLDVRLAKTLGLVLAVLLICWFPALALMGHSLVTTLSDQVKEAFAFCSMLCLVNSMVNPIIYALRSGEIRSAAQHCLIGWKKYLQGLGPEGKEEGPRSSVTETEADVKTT

Row | Compound | IC50 (anandamide transporter; read-out: IC50 (AT inhib.)) | Ki (CB1 cannabinoid receptor; [2]) | Ki (CB1 cannabinoid receptor; [3]) | FAAH % Inhibition [1] | Ki (CB2 receptor) | Ki (CB1 cannabinoid receptor; [4]) | Ki (CB1 cannabinoid receptor; [5]) | IC50 (anandamide transporter; read-out: IC50 AT inhibition)
1 | CCCCCC=CCC=CCC=CCC=CCCCCOC(=O)NCC(C)O (stereo not drawn) [Compound B4] | 400 nM | 320 nM | 338 nM | 7% | 254 nM | – | – | –
2 | COc1cc(CNC(=O)CCC/C=C\C/C=C\C/C=C\C/C=C\CCCCCN=[N+]=[N-])ccc1O [Compound A15] | – | – | – | 38% | 74.7 nM | 13.2 nM | 48.8 nM | –
3 | CCCCCN(C)C/C=C\C/C=C\C/C=C\C/C=C\CCCCNC(=O)COC [Compound A24] | – | – | – | – | 435 nM | – | – | –
4 | CCCCC/C=C\C/C=C\C/C=C\C/C=C\CCCCOC(=O)NC(C)C [Compound B5] | 21900 nM | 343 nM | 510 nM | 4.5% | 543 nM | – | – | –
5 | CCCCCN(C)C/C=C\C/C=C\C/C=C\C/C=C\CCCCNC(C)=O [Compound A23] | – | – | – | – | 1760 nM | 627 nM | 813 nM | –
6 | CCCCCN(C)C/C=C\C/C=C\C/C=C\C/C=C\CCCCNC(=O)COC [Compound A22] | – | – | – | – | 224 nM | – | – | –
7 | CCCCC/C=C\C/C=C\C/C=C\C/C=C\CCCCOC(=O)Nc1ccc(O)cc1 [Compound B9] | 6600 nM | 3300 nM | 5390 nM | 27.3% | 533 nM | – | – | –
8 | CCCCC/C=C\C/C=C\C/C=C\C/C=C\CCCCOC(=O)NC1CC1 [Compound B6] | 15500 nM | 75.1 nM | 181 nM | – | 983 nM | – | – | –
9 | CCCCC/C=C\C/C=C\C/C=C\C/C=C\CCCCOC(=O)N[C@@H](C)CO [Compound B2] | 6400 nM | 996 nM | 1100 nM | 14.3% | 2150 nM | – | – | –
10 | O=C(CCC/C=C\C/C=C\C/C=C\C/C=C\CCCCCCl)NC1CC1 [Compound A20] | – | – | – | 67% | 28.3 nM | 0.17 nM | 57.9 nM | 4100 nM
11 | CCCCCN(C)C/C=C\C/C=C\C/C=C\C/C=C\CCCCNC(C)=O [Compound A25] | – | – | – | – | 3650 nM | 1030 nM | 1500 nM | –
12 | [N-]=[N+]=NCCCC/C=C\C/C=C\C/C=C\C/C=C\CCCC(=O)NC1CCC1 [Compound A9] | – | – | – | 58% | 72.4 nM | 31.9 nM | 112 nM | –
